Results taken from patent US6410597B1, “Hydroxyalkyl amide analogs of ceramide” (Virginia Commonwealth University, priority 2000, dated 2002).
“Also recorded” adds a separate entry of the source.

How the values were obtained:
U87 cells = assay: MTS proliferation assay of malignant glioma cells; format: cell-based, human; conditions: U87, 6 days; S16 100 μM, S18 100 or 200 μM
Description: (§1) FIGS. 5A, 5B and 5C. MTS proliferation assay of in vitro brain tumor cells (malignant glioma) treated with structural analogues of ceramic. (•) control; (∘) S16, 100 μM; (▾) S18, 200 μM; (∇) S18, 100 μM. 5A: U87 cells (6 days); 5B: RT2 cells (6 days); 5C: T98 cells (5 days).
(§2) Murine neuroblastoma x rat glioma NG108-15 and murine neuroblastoma x rat dorsal root ganglion F-11 cells were kindly provided by Drs. Robert Ledeen (New Jersey School of Medicine, Newark, N.J.) and Glyn Dawson (University of Chicago, Chicago, Ill.), respectively. PC12 (rat adrenal pheochromocytoma, ATCC CRL 1721) cells were purchased from the American Type Culture Collection (Manassas, Va.). U87 and T98 human glioma cells were purchased from the American Type Culture Collection (Manassas, Va.). RT2 rat glioma cells were a gift.
(§3) CU87, T98 or RT2 malignant glioma cells (750/well) were plated onto 96-well plates and allowed to grow for 5-6 days in the presence of the ceramic analogues S16, S18 or B16, or control media. The CellTiter96® Aqueous One cell proliferation assay (Promega, Inc.) was used to quantify glioma cell proliferation. In this assay, the amount of formazan product (490 nm absorbance) made from the conversion of [3-(,5-dimethyl-2-yl)-5-(3-carboxymethoxyphenyl)-2-(4-sulfophenyl)-2H-tetrazolium, inner salt (MTS) by dehydrogenase enzymes of metabolically active cells is directly proportional to the number of living cells in culture.
(§4) The effect of the compounds S16, S18, and B16 on the ability of U87, RT2 and T98 glioma cells to proliferate in vitro was investigated as described in Methods and the results are presented in FIGS. 5A, 5B and 5C, respectively.

T98 cells = assay: MTS proliferation assay of malignant glioma cells; format: cell-based, human; conditions: T98, 5 days; S16 100 μM, S18 100 or 200 μM
Description: as §1, §2, §3, §4

RT2 cells = assay: MTS proliferation assay of malignant glioma cells; format: cell-based, rat; conditions: RT2, 6 days; S16 100 μM, S18 100 or 200 μM
Description: as §1, §2, §3, §4

[1] = test system: NG108-15 or F-11 neuroblastoma tumors; assay: In vivo tumor model in athymic mice; design: species or system athymic NU/NU mice
Description: A total of 1×10^6 NG108-15 or F-11 cells in 200 μl of phosphate buffered saline (PBS) was subcutaneously injected into each side of athymic NU/NU mice (Harlan) for generation of an in vivo brain tumor model in mouse skin. The resulting tumors were treated either intraperitoneally or by direct intratumor injection of ceramic analogs. Tumor growth rates and treatment results were the same within experimental error regardless of whether NG108-15 or F-11 cells were used.
Tumor growth was monitored by caliper measurement. The tumor volume was calculated by the formula: tumor size [mm^3]=(tumor width [mm])^2×tumor length [mm].
(§5) The intraperitoneal administration of ceramic analogs started one day after grafting and was performed twice per day with 0.7 ml of 2 mM S16 or 4 mM S18 corresponding to 50-100 mg/kg per mouse. The compounds were predissolved in dimethylsulfoxide (DMSO) at a maximum concentration of 250 mM and then serially diluted to 2 mM S16 or 4 mM S18 in 20% bovine serum albumin (BSA), 500 μM sodium stearate, 0.9% sodium chloride.
The intratumoral administration of ceramic analogs was initiated when tumor size was 30-50 mm^3 and consisted of daily injections of a 10-fold concentrated analog solution prepared as described above for S16 or of 2 mM B16 in 0.9% sodium chloride. The final concentration was calculated to be 200 μM when applied in a volume of 10% of the tumor size. Tumor volume was measured and calculated as described above.
Athymic mice were grafted with neuroblastoma tumors by subcutaneous injection and treated by intraperitoneal or intratumoral injection of S16 as described in Methods. Control mice received no treatment, or treatment with C-16 EA. […] Furthermore, the first measurable tumors appeared 2 days later in mice treated with S16 than in control mice. […]
FIG. 9. […] The tumor volume was determined by caliper measurement and was about 4 ml for the mouse on the left side (untreated for 10 days) and 2 ml for the mouse on the right side (treated for 14 days).

[2] = test system: Neuroblastoma cells (NG108-15 or F-11); assay: Effect of alkyl chain length on apoptotic potential of N-acylated compounds; format: cell-based; conditions: 30% confluence, overnight, various concentrations
Description: (§6) Apoptosis was analyzed by DNA fragmentation, in situ terminal nucleotidyl transferase assay, and staining of condensed chromatin with Hoechst dye 33258 as described elsewhere (Ji et al., 1995; Bieberich et al., 1999) and as further outlined below. The degree of cell death was monitored by determination of the number of floating cells and cells stained with 0.4% trypan blue (Wang et al., 1999).
Neuroblastoma cells (NG108-15 or F-11) were grown to 30% confluence and incubated overnight with various concentrations of N-acyl compounds containing carbon chains with 8, 16 and 18 carbons, as well as C16 ethanolamine. The floating cells were harvested from the medium and the amount of cellular protein determined for calculation of dead cells. In addition, cell death was quantified by staining with trypan blue. The attached cells were stained with Hoechst dye 33258 for calculation of apoptotic cells with condensed chromatin. The number of apoptotic cells was determined by counting 100 stained cells in 20 different areas on tissue culture dishes from three independent experiments.
The effect of alkyl chain length on the apoptotic potential of S16 and two compounds differing only in the length of the alkyl chains, S8 (8 carbons)and S18 (18 carbons) was investigated as described in Methods. Also, the contribution of the second β-hydroxymethyl group of S16 was analyzed by comparison with the effect of C16 EA (C16 ethanolamine) on apoptosis. […] As such, the preferred length is 12-20 carbons.

NG108-15 cells [3] = assay: Dependence of S16 induced apoptosis on cell density; format: cell-based, murine neuroblastoma x rat glioma; conditions: 100 μM S16 overnight; cell density below 20% or above 50%
Description: as §6
Cells were grown to varying degrees of confluence (100%=1.0×10^5 cells/cm^2) and then incubated overnight with 100 μM S16. The floating cells were harvested from the medium and the amount of cellular protein determined for calculation of dead cells. In addition, cell death was quantified by staining with trypan blue. The attached cells were stained with Hoechst dye 33258 for calculation of apoptotic cells with condensed chromatin. The number of apoptotic cells was determined by counting 100 stained cells in 20 different areas on tissue culture dishes from three independent experiments.
(§7) The dependence of the rate of S16 induced apoptosis of NG108-15 cells on cell density was investigated as described in methods and the results are given in FIG. 3. […] This observation was confirmed by determination of cell density-dependent DNA fragmentation (laddering) upon incubation with S16. Cells were incubated with 100 μM S16 for 15 hours.

[4] = General toxicity during in vivo treatment; conditions: up to a total of 200 mg/kg/day, treatment for 14 days
Description: as §5
Athymic mice were grafted with neuroblastoma tumors by subcutaneous injection and treated by intraperitoneal or intratumoral injection of S16 as described in Methods. Control mice received no treatment, or treatment with C-16 EA. […] Furthermore, the first measurable tumors appeared 2 days later in mice treated with S16 than in control mice.

NG108-15 cells [5] = assay: Alteration of ceramic and sphingolipid levels (HPTLC) upon incubation with S16; format: cell-based, murine neuroblastoma x rat glioma
Description: as §2
(§8) Lipids were prepared and analyzed by HPTLC as described previously (Freischutz et al., 1997).
(§9) NG108-15 or F-11 cells were incubated with 100 μM S16 overnight and endogenous ceramic analyzed by HPTLC of neutral lipids corresponding to 200 μg of cellular protein applied per lane. The HPTLC plate was developed in CHCl3/HOAc (9:1), v/v) and sphingolipids stained with cupric acetate/phosphoric acid reagent. Levels of ceramic, sphingomyelin, and neutral lipids were determined by densitometric analysis and comparison with various amounts of standard lipids. […] However, the concentration of ceramic in F-11 and NG108-15 cells at 20% confluence was elevated by about 50-80%.

F-11 cells [6] = assay: Cell density-dependent DNA fragmentation (laddering); format: cell-based, murine neuroblastoma x rat dorsal root ganglion; conditions: 100 μM S16, 15 hours; 30% confluent compared with 100% confluent cells
F-11 cells [7] = assay: Alteration of ceramic and sphingolipid levels (HPTLC) upon incubation with S16; format: cell-based, murine neuroblastoma x rat dorsal root ganglion
Description: as §2, §8, §9

PC12 cells = assay: Dependence of apoptosis on cell differentiation (Hoechst dye 33258 staining); format: cell-based, rat; conditions: 24 hours; undifferentiated vs forskolin-differentiated PC12 cells
Description: as §2, §6
The dependence of apoptosis upon differentiation of cells was analyzed by incubating undifferentiated PC12 cells and PC12 cells which had been induced to differentiate with S16 for 24 hours. Differentiation was induced by preincubation with 10 μM forskolin for 48 hrs. The extent of apoptosis was determined by staining with Hoechst dye 33258.
The apoptotic potential of S16 with respect to cell differentiation was investigated as described in Methods.

NG108-15 cells [8] = assay: Cell density-dependent DNA fragmentation (laddering); format: cell-based, murine neuroblastoma x rat glioma; conditions: 100 μM S16, 15 hours; 30% confluent compared with 100% confluent cells
Description: as §6, §7

[9] = 100 μM S16, 100% confluent cells
[10] = 100 μM S16 overnight, cells at 20% confluence

Structure (SMILES): CCCCCCCCCCCCCCCC(=O)N(CCO)CCO [B16, N,N-bis(2-hydroxyethyl) palmitamide]
- cellular proliferation (U87 cells): marked decrease in cellular proliferation; also recorded: virtually eliminating the proliferation
- cellular proliferation (T98 cells): marked decrease in cellular proliferation; also recorded: virtually eliminating the proliferation
- cellular proliferation (RT2 cells): marked decrease in cellular proliferation; also recorded: virtually eliminating the proliferation

Structure (SMILES): CCCCCCCC/C=C\CCCCCCCC(=O)NC(CO)CO [S18, N-oleoyl serinol]
- cellular proliferation (U87 cells): marked decrease in cellular proliferation; also recorded: virtually eliminating the proliferation
- cellular proliferation (T98 cells): marked decrease in cellular proliferation; also recorded: virtually eliminating the proliferation
- cellular proliferation (RT2 cells): marked decrease in cellular proliferation; also recorded: virtually eliminating the proliferation
- tumor volume (caliper measurement) ([1]; F-11 grafts, intra-peritoneal 0.7 ml of 4 mM twice a day for 14 days, untreated mouse about 4 ml at 10 days): ~2 mL
- apoptotic potential [2]: optimal

Structure (SMILES): CCCCCCCCCCCCCCCC(=O)NCCO [C16 EA, N-palmitoyl ethanolamine, reference compound]
- apoptotic potential [2]: almost no apoptosis

Structure (SMILES): CCCCCCCCCCCCCCCC(=O)NC(CO)CO [S16, N-palmitoyl serinol]
- cellular proliferation (U87 cells): marked decrease in cellular proliferation
- cellular proliferation (T98 cells): marked decrease in cellular proliferation
- degree of apoptosis (NG108-15 cells [3]): markedly decreased
- cellular proliferation (RT2 cells): marked decrease in cellular proliferation
- final size of the tumors relative to untreated or C16-EA treated mice ([1]; intraperitoneal or intratumoral injection): 30-35%
- delay of appearance of first measurable tumors versus control mice ([1]; mice treated with S16): 2 days
- effects of general toxicity [4]: No effects of general toxicity were observable
- alteration of endogenous ceramic (NG108-15 cells [5]; [9]): no significant alteration
- alteration of the glycosphingolipid composition (NG108-15 cells [5]; 100 μM S16 overnight): no detectable alteration
- alteration of the level of sphingomyelin (NG108-15 cells [5]; 100 μM S16 overnight): no detectable alteration
- concentration of ceramic elevated (NG108-15 cells [5]; [10]): 50-80%
- laddering of 200-base pair fragments (F-11 cells [6]): increased markedly
- apoptotic potential [2]: optimal
- alteration of endogenous ceramic (F-11 cells [7]; [9]): no significant alteration
- alteration of the glycosphingolipid composition (F-11 cells [7]; 100 μM S16 overnight): no detectable alteration
- alteration of the level of sphingomyelin (F-11 cells [7]; 100 μM S16 overnight): no detectable alteration
- concentration of ceramic elevated (F-11 cells [7]; [10]): 50-80%
- apoptosis (staining with Hoechst dye) (PC12 cells): only undifferentiated cells showed the typical staining
- laddering of 200-base pair fragments (NG108-15 cells [8]): increased markedly
